Reference: patent publication US6790859B2, “Reversing advanced glycosylation cross-links using heterocyclic-substituted thiazolium compounds” (Alteon Incorporated, priority 1998, dated 2004)

Tests used:
[1] = test system: IgG bound to the surface of RBC (AGE cross-links); assay: Reversing AGE cross-links: RBC-IgG assay (IgG bound to RBC from streptozotocin-diabetic rats); type: cell-based, rat; details: RBC of streptozotocin-diabetic rats incubated with test compound in PBS overnight at 37° C.; concentration not given
Description: The activity of the compounds of the present invention to reverse AGE cross-links was evaluated in an in-vitro model, as follows. Blood was collected from streptozotocin-diabetic rats (6 to 8 wk diabetic) in heparinized tubes, centrifuged at 2500×g for 15 min. at […], and the plasma and buffy-coat layers aspirated off. The RBC were washed with PBS (ca. 5 ml PBS per ml blood) three times. Test compounds were dissolved in PBS and the pH adjusted to 7.0, if necessary. Two hundred microliters of washed RBC were added to 2 mL of test compound solution, and the mixture was incubated overnight at 37° C. […] After the overnight incubation, the reaction mixtures were centrifuged and the RBC pellets were washed three times with PBS, followed by diluting 1:30 in PBS. Immunoglobulin G (IgG) bound to the surface of the washed RBCs was then determined. Assay for RBC-IgG: The assay is performed in a Multiscreen-HA, 0.45 μm cellulose mixed esters membrane-sealed 96 well plate (Millipore MAHAS45). The membranes are first wet by filling the wells with 100 uL PBS, and the wells emptied by applying a vacuum to the Millititer vacuum manifold. Three hundred uL of Superblock (pre-warmed to 37° C.) is then added to each well and incubated at 37° C. for one hour. The Superblock is then removed from the wells by application of vacuum, then the wells are washed once with 300 ul of PBS-Tween (0.05%) and three times with PBS. The vacuum is then turned off. One hundred μl of PBS is then added to each well. Each RBC sample is gently vortexed, and 50 uL pipetted into the wells, in sextuplicate. The wells labeled A1-A3 are left for a reagent blank and wells A4-A6 reserved for an antibody blank. Vacuum is then applied to remove the buffer and the RBCs are washed once with PBS. Alkaline phosphatase-labeled rabbit-anti-rat IgG is diluted 1 to 25000 in PBS, and 50 μl is added to triplicate wells of each sample. PBS alone is added to the other three wells of each sample. These will serve as sample blanks to adjust for any endogenous alkaline phosphatase activity. The samples are allowed to stand at room temperature for two hours. The solution is then removed by application of vacuum and the red blood cells are washed with PBS-Tween twice, PBS twice and with TBS twice. The bottom of the plate is rinsed with distilled water and blotted dry with paper towels. To each well is then added 100 μl of p-nitrophenyl phosphate substrate (1 mg/ml in diethanolamine buffer pH 9.5), and the color is allowed to develop for two hours at 37° C. The solutions in each well are then transferred to a 96 well microtiter plate inside the vacuum manifold. One hundred μl of PBS to each well and vacuum applied again to transfer any remaining solution into the microtiter plate. The OD at 410 nm is then read in a Dynatech Plate reader (Sample filter 1 and Ref. filter 4). For data analysis, breaking activity (percent reversal) is expressed as the percent decrease in O.D. caused by incubation of RBC with the test compound compared to RBC incubated in PBS alone. Using the above assay, the following data was generated on the compounds of the present invention: […]

[2] = test system: AGE-BSA cross-linked to rat tail tendon collagen (type 1); assay: Reversing collagen cross-links: AGE-BSA cross-linked to rat tail tendon collagen-coated plates; type: biochemical; details: 3 mM test compound, overnight at 37° C.
Description: In a further evaluation of the ability of compounds of the present invention to reverse AGE cross-links between a circulating protein and collagen, AGE-BSA was cross-linked to rat tail tendon collagen (type 1)-coated 96 well microtiter plates, and reversal of cross-linking was determined.
AGE-BSA preparation. AGE-BSA is prepared by incubation of a solution of BSA (400 mg/ml) in 0.4 M sodium phosphate buffer pH 7.4 with an equal volume of 400 mM glucose solution in the same buffer at 37° C. for 12 weeks. The pH of the incubation mixture is monitored weekly and adjusted to pH 7.4 if necessary. After 12 weeks, the AGE-BSA solution is dialyzed against PBS for 48 hours with 4 buffer changes. Protein concentration is determined by the micro-Lowry method.
Assay protocol. […] AGE-BSA was diluted in PBS to a concentration required to obtain maximum cross-linking as determined in a preliminary experiment. […]
Test compounds are dissolved in PBS and pH adjusted to 7.0 if necessary. […] The test compounds and PBS are also added to triplicate wells incubated with BSA, to obtain the blank readings. […]
The plate is washed with PBS-Tween, […] of Rabbit-anti-BSA antibody (1 to 4000 in PBS) is added to each well and the plate is incubated at room temperature for 60 min. […] Optical density is read at 410 nm with the sample filter set to “1” and the reference filter set to “5” on the Dynatech ELISA plate reader. […]

Compound | Percent reversal (breaking activity: percent decrease in O.D. vs RBC incubated in PBS alone) [1] [%] | reversal of AGE cross-links (percent breaking, decrease in OD of TTC-AGE-BSA wells vs PBS) [2] [%]
Cc1sc[n+](CC(=O)N2CCSCC2)c1C.[Br-] [3-(2-(4-thiomorpholinyl)-2-oxoethyl)-4,5-dimethylthiazolium bromide] | 47 | 
Cc1c(CCO)sc[n+]1CC(=O)c1cccs1.[Br-] [3-(2-(2-thienyl)-2-oxoethyl)-4-methyl-5-hydroxyethylthiazolium bromide] | 24 | 
Cc1sc[n+](CC(=O)c2ccco2)c1C.[Br-] [3-(2-(2-furanyl)-2-oxoethyl)-4,5-dimethylthiazolium bromide] | 76 | 
Cc1sc[n+](CC(=O)N2CCCC2)c1C.[Br-] [3-(2-(1-pyrrolidinyl)-2-oxoethyl)-4,5-dimethyl-thiazolium bromide] | 63 | 
Cc1sc[n+](CC(=O)N2CC(C)OC(C)C2)c1C.[Br-] (stereo not drawn) [3-[2-(2,6-dimethyl-4-morpholinyl)-2-oxoethyl]-4,5-dimethylthiazolium bromide] | 38 | 
Cc1sc[n+](CC(=O)N2CCC(Cc3ccccc3)CC2)c1C.[Cl-] [3-[2-(4-benzyl-1-piperidinyl)-2-oxoethyl]-4,5-dimethylthiazolium chloride] | 70 | 
Cc1sc[n+](CC(=O)c2ccccn2)c1C.[Br-] [3-(2-(2-pyridinyl)-2-oxoethyl)-4,5-dimethyl-thiazolium bromide] | 27 | 
Cc1sc[n+](CC(=O)N2CCCCC2)c1C.[Br-] [3-(2-(1-piperidinyl)-2-oxoethyl)-4,5-dimethylthiazolium bromide] | 37 | 
Cc1sc[n+](CC(=O)c2ccc3c(c2)CCC(=O)N3)c1C.[Br-] [3-[2-(2-oxo-1,2,3,4-tetrahydro-6-quinolinyl)-2-oxoethyl]-4,5-dimethylthiazolium bromide] | 84 | 
Cc1sc[n+](CC(=O)c2cccs2)c1C.[Br-] [3-(2-(2-thienyl)-2-oxoethyl)-4,5-dimethyl-thiazolium bromide] | 53 | 
O=C(C[n+]1ccsc1)c1cc(-c2ccccc2)no1.[Br-] [3-[2-(3-phenyl-5-isoxazolyl)-2-oxoethyl]-thiazolium bromide] | 38 | 15
